Experimental data: patent publication US20230114728A1 (Venatorx Pharmaceuticals, Inc., priority 2019, published 2023)
Converted amounts (≈) assume the structure as drawn.

How the values were obtained:
Assay in all cases: Broth microdilution MIC in iron-depleted CAMHB (IDM)
Format in all cases: cell-based
A. baumannii ATCC 17978 = conditions: Acinetobacter baumannii, ATCC17978, read-out: Minimum Inhibitory Concentration, ATCC 17978
How it was run: (§1)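 IDM = CAMHB stripped with Chelex 100 resin 2 h, supplemented CaCl2 82.5 mg/L, MgCl2 94.1 mg/L, ZnSO4 10 μM, pH 7.3. 2-fold compound dilutions; 2-8×10^5 CFU/mL; 37° C; Acinetobacter 20-24 h, Pseudomonas 16-20 h. Visual MIC.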

[1] = tested on: A. baumannii CDC-0033 producing NDM-1, and OXA-94; conditions: Acinetobacter baumannii, read-out: Minimum Inhibitory Concentration, CDC-0033
How it was run: as §1

[2] = tested on: A. baumannii CDC-0036 OXA-65, and OXA-24; conditions: Acinetobacter baumannii, read-out: Minimum Inhibitory Concentration, CDC-0036
How it was run: as §1

[3] = tested on: P. aeruginosa (ΔmexAB-oprM); conditions: Pseudomonas aeruginosa, read-out: Minimum Inhibitory Concentration, P. aeruginosa ΔmexAB-OprM
How it was run: as §1

P. aeruginosa ATCC 27853 = conditions: Pseudomonas aeruginosa, ATCC27853, read-out: Minimum Inhibitory Concentration, P. aeruginosa ATCC 27853
How it was run: as §1

P. aeruginosa ATCC 35151 = conditions: Pseudomonas aeruginosa, ATCC35151; iron-depleted MHB (IDM); hyper-permeable strain; read-out: Minimum Inhibitory Concentration, P. aeruginosa ATCC 35151
How it was run: as §1

[4] = tested on: P. aeruginosa CDC-0054 producing VIM-4, OXA-50, and PAO; conditions: Pseudomonas aeruginosa, read-out: Minimum Inhibitory Concentration, P. aeruginosa CDC-0054
How it was run: as §1

[5] = tested on: P. aeruginosa CDC-0090 producing KPC-5, OXA-50, and PAO; conditions: Pseudomonas aeruginosa, read-out: Minimum Inhibitory Concentration, P. aeruginosa CDC-0090
How it was run: as §1

[6] = tested on: P. aeruginosa CDC-0095 producing OXA-50, and PAO; conditions: Pseudomonas aeruginosa, read-out: Minimum Inhibitory Concentration, P. aeruginosa CDC-0095
How it was run: as §1

P. aeruginosa CDC-0110 = conditions: Pseudomonas aeruginosa, CDC0110, read-out: Minimum Inhibitory Concentration, P. aeruginosa CDC-0110
How it was run: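 CLSI broth microdilution in iron-depleted cation-adjusted Mueller Hinton broth (Chelex-treated, Ca, Mg, Zn restored, pH 7.3), inoculum 2-8×10^5 CFU/mL, 2-fold compound dilutions. Pseudomonas plates incubated 16-20 h at 37 °C; MIC read visually as lowest concentration without growth.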

| Structure (SMILES) | MIC (A. baumannii ATCC 17978) [µg/mL] | MIC [1] [µg/mL] | MIC [2] [µg/mL] | MIC [3] [µg/mL] | MIC (P. aeruginosa ATCC 27853) [µg/mL] | MIC (P. aeruginosa ATCC 35151) [µg/mL] | MIC [4] [µg/mL] | MIC [5] [µg/mL] | MIC [6] [µg/mL] | MIC (P. aeruginosa CDC-0110) [µg/mL] |
| --- | --- | --- | --- | --- | --- | --- | --- | --- | --- | --- |
| CS(=O)(=O)N1CCN(C(=O)N[C@@H](C(=O)N[C@H]2Cc3ccc(F)c(C(=O)O)c3OB2O)c2cc(F)c(O)c(O)c2Cl)C1=O (single isomer, unassigned) [Example 189] | 0.25 (≈ 0.395 µM) | 2 to 4 (≈ 3.16 to 6.32 µM) | 2 to 4 (≈ 3.16 to 6.32 µM) | 0.25 (≈ 0.395 µM) | 0.5 to 1 (≈ 0.79 to 1.58 µM) | 0.25 (≈ 0.395 µM) | 0.5 to 1 (≈ 0.79 to 1.58 µM) | 0.5 to 1 (≈ 0.79 to 1.58 µM) | 2 to 4 (≈ 3.16 to 6.32 µM) | 0.5 to 1 (≈ 0.79 to 1.58 µM) |
| CCN1CCN(C(=O)N[C@@H](C(=O)N[C@H]2Cc3ccc(F)c(C(=O)O)c3OB2O)c2c(Cl)cc(O)c(O)c2F)C(=O)C1=O (single isomer, unassigned) [Example 207] | 0.5 to 1 (≈ 0.819 to 1.64 µM) | 32 to 64 (≈ 52.4 to 105 µM) | 2 to 4 (≈ 3.27 to 6.55 µM) | 2 to 4 (≈ 3.27 to 6.55 µM) | 2 to 4 (≈ 3.27 to 6.55 µM) | 0.25 (≈ 0.409 µM) | 2 to 4 (≈ 3.27 to 6.55 µM) | 2 to 4 (≈ 3.27 to 6.55 µM) | 8 to 16 (≈ 13.1 to 26.2 µM) | 2 to 4 (≈ 3.27 to 6.55 µM) |
| O=C(NCCCN1CCN(C(=O)NC(C(=O)N[C@H]2Cc3cccc(C(=O)O)c3OB2O)c2ncc(O)cc2F)C(=O)C1=O)c1ccc(O)c(O)c1Cl (stereo partly drawn) [Example 1, (3R)-3-(2-(4-(3-(2-chloro-3,4-dihydroxybenzamido)propyl)-2,3-dioxopiperazine-1-carboxamido)-2-(3-fluoro-5-hydroxypyridin-2-yl)acetamido)-2-hydroxy-3,4-dihydro-2H-benzo[e][1,2]oxaborinine-8-carboxylic acid] |  |  |  | 2 to 4 (≈ 2.69 to 5.38 µM) | 8 to 16 (≈ 10.8 to 21.5 µM) | 0.5 to 1 (≈ 0.673 to 1.35 µM) |  |  |  |  |
| C[C@H]1CN(CCNC(=O)c2ccc(O)c(O)c2Cl)C(=O)C(=O)N1C(=O)NC(C(=O)N[C@H]1Cc2cccc(C(=O)O)c2OB1O)c1ncc(O)cc1F (stereo partly drawn) [Example 2, (3R)-3-(2-((S)-4-(2-(2-chloro-3,4-dihydroxybenzamido)ethyl)-6-methyl-2,3-dioxopiperazine-1-carboxamido)-2-(3-fluoro-5-hydroxypyridin-2-yl)acetamido)-2-hydroxy-3,4-dihydro-2H-benzo[e][1,2]oxaborinine-8-carboxylic acid] | 0.5 to 1 (≈ 0.673 to 1.35 µM) | 8 to 16 (≈ 10.8 to 21.5 µM) | 32 to 64 (≈ 43.1 to 86.2 µM) | 0.25 (≈ 0.337 µM) | 2 to 4 (≈ 2.69 to 5.38 µM) | 0.25 (≈ 0.337 µM) | 2 to 4 (≈ 2.69 to 5.38 µM) | 2 to 4 (≈ 2.69 to 5.38 µM) | 8 to 16 (≈ 10.8 to 21.5 µM) | 2 to 4 (≈ 2.69 to 5.38 µM) |
| O=C(NCCCN1CCN(C(=O)NC(C(=O)N[C@H]2Cc3ccc(F)c(C(=O)O)c3OB2O)c2ncc(O)cc2F)C(=O)C1=O)c1ccc(O)c(O)c1Cl (stereo partly drawn) [Example 3, (3R)-3-(2-(4-(3-(2-chloro-3,4-dihydroxybenzamido)propyl)-2,3-dioxopiperazine-1-carboxamido)-2-(3-fluoro-5-hydroxypyridin-2-yl)acetamido)-7-fluoro-2-hydroxy-3,4-dihydro-2H-benzo[e][1,2]oxaborinine-8-carboxylic acid] | 8 to 16 (≈ 10.5 to 21 µM) | 32 to 64 (≈ 42.1 to 84.1 µM) | 32 to 64 (≈ 42.1 to 84.1 µM) | 0.5 to 1 (≈ 0.657 to 1.31 µM) | 2 to 4 (≈ 2.63 to 5.26 µM) | 0.25 (≈ 0.329 µM) | 2 to 4 (≈ 2.63 to 5.26 µM) | 8 to 16 (≈ 10.5 to 21 µM) | 8 to 16 (≈ 10.5 to 21 µM) | 2 to 4 (≈ 2.63 to 5.26 µM) |
| Nc1nc(C(NC(=O)N2CCN(CCNC(=O)c3ccc(O)c(O)c3Cl)C(=O)C2=O)C(=O)N[C@H]2Cc3ccc(F)c(C(=O)O)c3OB2O)c(F)s1 (stereo partly drawn) [Example 4, (3R)-3-(2-(2-amino-5-fluorothiazol-4-yl)-2-(4-(2-(2-chloro-3,4-dihydroxybenzamido)ethyl)-2,3-dioxopiperazine-1-carboxamido)acetamido)-7-fluoro-2-hydroxy-3,4-dihydro-2H-benzo[e][1,2]oxaborinine-8-carboxylic acid] | 0.25 (≈ 0.333 µM) | 32 to 64 (≈ 42.6 to 85.1 µM) | 32 to 64 (≈ 42.6 to 85.1 µM) | 0.25 (≈ 0.333 µM) | 0.25 (≈ 0.333 µM) | 0.25 (≈ 0.333 µM) | 0.5 to 1 (≈ 0.665 to 1.33 µM) | 0.25 (≈ 0.333 µM) | 0.5 to 1 (≈ 0.665 to 1.33 µM) | 0.25 (≈ 0.333 µM) |
